Molecules are shown by their SMILES.

One series addresses T1, human Src kinase (Homo sapiens, UniProt P12931).
T1 construct: full length recombinant human Src kinase (from Upstate Biotechnology, cat. no. 14-117); purchased Upstate Biotechnology 14-117; host or cells: baculo viral cells
Put plainly: SRC inhibition assay (radioactivity-based or spectrophotometric assay). It counts as biochemical. The settings on record: recombinant human Src kinase; assay A or B; read-out: Ki value for SRC. The procedure: The compounds were evaluated as inhibitors of human Src kinase using either a radioactivity-based assay or spectrophotometric assay. The compounds were assayed as inhibitors of full length recombinant human Src kinase (from Upstate Biotechnology, cat. no. 14-117) expressed and purified from baculo viral cells. […] P-0275). […] In a typical assay, all the reaction components with the exception of ATP were pre-mixed and aliquoted into assay plate wells. […] The assay plate was incubated at 30° C. for 10 min before initiating the reaction with ^33P-ATP. After 20 min of reaction, the reactions were quenched with 150 μl of 10% trichloroacetic acid (TCA) containing 20 mM Na3PO4. The quenched samples were then transferred to a 96-well filter plate (Whatman, UNI-Filter GF/F Glass Fiber Filter, cat no. 7700-3310) installed on a filter plate vacuum manifold. Filter plates were washed four times with 10% TCA containing 20 mM Na3PO4 and then 4 times with methanol. 200 μl of scintillation fluid was then added to each well. The plates were sealed and the amount of radioactivity associated with the filters was quantified on a TopCount scintillation counter. The radioactivity incorporated was plotted as a function of the inhibitor concentration. The data was fitted to a competitive inhibition kinetics model to get the Ki for the compound. The ADP produced from ATP by the human recombinant Src kinase-catalyzed phosphorylation of poly Glu-Tyr substrate was quanitified using a coupled enzyme assay (Fox et al (1998) Protein Sci 7, 2249). In this assay one molecule of NADH is oxidised to NAD for every molecule of ADP produced in the kinase reaction. The disappearance of NADH can be conveniently followed at 340 nm. […] In a typical assay, all the reaction components with the exception of ATP were pre-mixed and aliquoted into assay plate wells. […] The absorbance change at 340 nm with time, the rate of the reaction, was monitored on a molecular devices plate reader. The data of rate as a function of the inhibitor concentration was fitted to competitive inhibition kinetics model to get the Ki for the compound.

The target of a further series is T2, GSK-3β (AA 1-420) (Homo sapiens, UniProt P49841).
T2 construct: GSK-3β (AA 1-420)
T2 sequence (P49841 whole entry, the tested form may be a part): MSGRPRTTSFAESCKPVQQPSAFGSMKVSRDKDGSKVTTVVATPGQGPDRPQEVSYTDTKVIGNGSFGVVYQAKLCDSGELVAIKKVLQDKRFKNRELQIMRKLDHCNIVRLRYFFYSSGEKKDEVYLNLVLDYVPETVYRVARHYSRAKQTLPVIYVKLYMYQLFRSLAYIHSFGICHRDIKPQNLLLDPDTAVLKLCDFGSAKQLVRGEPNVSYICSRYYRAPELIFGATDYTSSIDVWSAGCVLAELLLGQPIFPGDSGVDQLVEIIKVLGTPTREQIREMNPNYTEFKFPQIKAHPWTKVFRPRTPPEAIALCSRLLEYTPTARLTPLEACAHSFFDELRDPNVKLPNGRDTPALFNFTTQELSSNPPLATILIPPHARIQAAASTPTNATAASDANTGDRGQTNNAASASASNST
The experiment in a line: Ki determination for the inhibition of GSK-3 (coupled enzyme system). It counts as biochemical. The following applies: 20 μM ATP, 20 nM GSK-3β, 30° C. The method, boiled down:
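GSK-3β (AA 1-420, 20 nM) was run in a pyruvate kinase/LDH-coupled NADH assay in 100 mM HEPES pH 7.5, 10 mM MgCl2, 25 mM NaCl, 1 mM DTT, 1.5% DMSO, with 300 μM phosphopeptide substrate. Compound (0.002–30 μM) was preincubated 10 min at 30° C, then 20 μM ATP was added.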

Another series deals with T3, Aurora-2 (Homo sapiens, UniProt O14965).
T3 sequence (O14965 1-403): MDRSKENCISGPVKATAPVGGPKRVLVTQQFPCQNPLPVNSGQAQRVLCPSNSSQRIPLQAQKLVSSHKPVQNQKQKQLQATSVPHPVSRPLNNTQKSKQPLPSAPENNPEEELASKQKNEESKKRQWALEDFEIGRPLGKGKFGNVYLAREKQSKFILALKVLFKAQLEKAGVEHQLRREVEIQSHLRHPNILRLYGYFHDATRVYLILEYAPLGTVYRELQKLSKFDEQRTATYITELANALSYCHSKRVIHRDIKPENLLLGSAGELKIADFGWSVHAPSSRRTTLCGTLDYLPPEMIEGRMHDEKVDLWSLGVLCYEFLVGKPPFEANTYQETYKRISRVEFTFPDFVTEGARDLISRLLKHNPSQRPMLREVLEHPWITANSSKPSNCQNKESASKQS
Put plainly: Ki determination for the inhibition of Aurora-2 (coupled enzyme assay). It counts as biochemical. The settings on record: 70 nM Aurora-2, 30° C. The method, boiled down: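 Ki came from reaction rates plotted against inhibitor concentration, with rates taken as A340 decrease over 5 min at 30° C. Enzyme (70 nM final) was added after 10 min compound preincubation; stock buffer held […], 800 μM LRRASLG, PK/LDH coupling, pH 7.5.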

T1 sequence (P12931 whole entry): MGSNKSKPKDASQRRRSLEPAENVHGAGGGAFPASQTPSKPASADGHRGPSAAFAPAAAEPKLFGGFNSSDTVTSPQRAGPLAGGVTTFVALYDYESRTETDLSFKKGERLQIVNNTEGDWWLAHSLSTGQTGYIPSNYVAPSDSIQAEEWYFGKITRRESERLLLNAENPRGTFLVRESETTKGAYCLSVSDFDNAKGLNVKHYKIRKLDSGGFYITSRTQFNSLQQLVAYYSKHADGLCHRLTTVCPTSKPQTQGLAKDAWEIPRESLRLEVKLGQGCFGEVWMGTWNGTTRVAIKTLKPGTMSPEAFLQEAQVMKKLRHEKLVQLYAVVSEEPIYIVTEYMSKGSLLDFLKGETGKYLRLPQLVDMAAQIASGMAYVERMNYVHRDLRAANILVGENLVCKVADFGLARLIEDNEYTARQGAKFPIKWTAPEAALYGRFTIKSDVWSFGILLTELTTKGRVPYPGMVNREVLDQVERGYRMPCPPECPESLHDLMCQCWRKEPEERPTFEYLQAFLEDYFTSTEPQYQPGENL

A word on the melting point: it is the temperature, or range, at which the solid turns liquid. For orientation: Ki means the dissociation constant of the complex between target and ligand, obtained from inhibition or displacement. `Cc1cc(Nc2cc(-c3ccccc3)nc(Sc3ccc(NC(=O)C(C)C)cc3)n2)n[nH]1` [IIIa-13, [2-(4-Isobutyrylylamino-phenylsulfanyl)-6-phenylpyrimidin-4-yl]-(5-methyl-2H-pyrazol-3-yl)-amine]: the melting point was in the range of 201 to 202 °C. On human Src kinase, the Ki lay in the range of 1000 to 6000 nM.

`Cc1cc(Nc2cc(-c3ccccc3)nc(Sc3ccc(NC(=O)CN(C)C)cc3)n2)n[nH]1` [IIIa-25, {2-[4-(2-Dimethylamino-acetylamino)-phenylsulfanyl]-6-phenyl-pyrimidin-4-yl}-(5-methyl-2H-pyrazol-3-yl)-amine] displayed a melting point of 213 to 215 °C. For the same compound, at human Src kinase, the Ki was 1000 to 6000 nM.

As to `CC(=O)Nc1ccc(Sc2nc(Nc3cc(C)n[nH]3)cc(N3CCOCC3)n2)cc1` [IIIa-44, [2-(4-Acetamidophenylsulfanyl)-6-(morpholin-4-yl)-pyrimidin-4-yl]-(5-methyl-2H-pyrazol-3-yl)-amine], the Ki at human Src kinase was 1000 to 6000 nM.

Take `O=C(O)Cc1ccc(Nc2nc(Nc3cc(C4CC4)[nH]n3)c3ccccc3n2)cc1` [IIc-36, [2-(4-Carboxymethylphenylamino)-quinazolin-4-yl]-(5-cyclopropyl-2H-pyrazol-3-yl)-amine]: the melting point is > 210 °C (dec.). Also, at GSK-3β (AA 1-420), the Ki is < 100 nM. The Ki at Aurora-2 is < 100 nM.

Compound `O=C(O)c1cccc(Nc2nc(Nc3cc(C4CC4)[nH]n3)c3ccccc3n2)c1` [IIc-40, [2-(3-Carboxyphenylamino)-quinazolin-4-yl]-(5-cyclopropyl-2H-pyrazol-3-yl)-amine] registered a melting point of 298 to 302 °C. At GSK-3β (AA 1-420), this compound came in with a Ki of 100 to 1000 nM. For the same compound, the Ki at Aurora-2 was < 100 nM.

Turning to `c1ccc(CCCNc2nc(Nc3cc(C4CC4)[nH]n3)c3ccccc3n2)cc1` [IIc-47, (5-Cyclopropyl-2H-pyrazol-3-yl)-[2-(3-phenylprop-1-ylamino)-quinazolin-4-yl]-amine], the melting point turned out to be 189 °C. Further, the Ki on GSK-3β (AA 1-420) is 100 to 1000 nM. In addition, at Aurora-2, the Ki was < 100 nM.

For the compound `CC(=O)Nc1ccc(Nc2nc(Nc3cc(C)[nH]n3)c3ccccc3n2)cc1C` [IIc-48, [2-(4-acetamido-3-methylphenylamino)-quinazolin-4-yl]-(5-methyl-2H-pyrazol-3-yl)-amine], the melting point was determined as 251 °C. This compound also showed a Ki at GSK-3β (AA 1-420) of 100 to 1000 nM. Besides, at Aurora-2, the Ki is < 100 nM.

Compound `c1ccc2c(c1)CC(Nc1nc(Nc3cc(C4CC4)[nH]n3)c3ccccc3n1)C2` [IIc-49, (5-Cyclopropyl-2H-pyrazol-3-yl)-[2-(indan-2-ylamino)-quinazolin-4-yl]-amine] displayed a melting point of 233 to 234 °C. The same compound had a Ki on GSK-3β (AA 1-420) of 100 to 1000 nM. At Aurora-2, the Ki was < 100 nM.

`Cc1cccc(Nc2nc(Nc3cc(C)[nH]n3)c3ccccc3n2)c1` [IIc-50, [2-(3-Methylphenylamino)-quinazolin-4-yl]-(5-methyl-2H-pyrazol-3-yl)-amine] showed a melting point of 240 to 242 °C. For the same compound, the Ki at GSK-3β (AA 1-420) lay within 100 to 1000 nM. In addition, the Ki on Aurora-2 was < 100 nM.

On to `c1ccc2c(Nc3cc(C4CC4)[nH]n3)nc(Nc3ccc(N4CCOCC4)cc3)nc2c1` [IIc-52, (5-Cyclopropyl-2H-pyrazol-3-yl)-{2-[4-(morpholin-1-yl)phenylamino]-quinazolin-4-yl}-amine], for which the melting point was in the range of 275 to 276 °C. This compound also had a Ki on GSK-3β (AA 1-420) of 100 to 1000 nM. Besides, the Ki on Aurora-2 is < 100 nM.

`Cc1cc(Nc2nc(Nc3ccc(C)c(C)c3)nc3ccccc23)n[nH]1` [IIc-54, [2-(3,4-Dimethylphenylamino)-quinazolin-4-yl]-(5-methyl-2H-pyrazol-3-yl)-amine] gave a melting point of 249 to 251 °C. In addition, at GSK-3β (AA 1-420), the inhibition constant Ki was in the range of 100 to 1000 nM. For the same compound, the Ki at Aurora-2 was < 100 nM.

`CCc1cccc(Nc2nc(Nc3cc(C)[nH]n3)c3ccccc3n2)c1` [IIc-55, [2-(3-Ethylphenylamino)-quinazolin-4-yl]-(5-methyl-2H-pyrazol-3-yl)-amine] displayed a melting point of 238 to 239 °C. Further, the Ki at GSK-3β (AA 1-420) fell in the range of 100 to 1000 nM. The Ki on Aurora-2 was < 100 nM.

Regarding `CC(=O)Nc1ccc(Nc2nc(Nc3cc(C)[nH]n3)c3ccccc3n2)cc1C#N` [IIc-57, [2-(4-Acetamido-3-cyanophenylamino)-quinazolin-4-yl]-(5-methyl-2H-pyrazol-3-yl)-amine], the melting point lay in the range of 294 to 296 °C. The compound also came in with a Ki on GSK-3β (AA 1-420) of 100 to 1000 nM. The Ki at Aurora-2 was < 100 nM.

With `CC(=O)Nc1ccc(Nc2nc(Nc3cc(C)[nH]n3)c3ccccc3n2)cc1` [IIc-59, [2-(4-Acetamidophenylamino)-quinazolin-4-yl]-(5-methyl-2H-pyrazol-3-yl)-amine], the melting point was 253 to 256 °C. The same compound showed a Ki at GSK-3β (AA 1-420) of 100 to 1000 nM. Moreover, the Ki on Aurora-2 was < 100 nM.

As to `Cc1cc(Nc2nc(Nc3ccc(NC(=O)OC(C)(C)C)cc3)nc3ccccc23)n[nH]1` [IIc-60, [2-(4-tert-Butoxycarbonylamino-phenylamino)-quinazolin-4-yl]-(5-methyl-2H-pyrazol-3-yl)-amine], the melting point fell in the range of 238 to 242 °C. Further, the Ki on GSK-3β (AA 1-420) was in the range of 1000 to 7000 nM. In addition, the Ki on Aurora-2 was < 100 nM.

`Cc1cc(Nc2nc(Nc3ccc(C#N)cc3)nc3ccccc23)n[nH]1` [IIc-61, [2-(4-Cyanophenylamino)-quinazolin-4-yl]-(5-methyl-2H-pyrazol-3-yl)-amine] had a melting point of 293 to 298 °C. In addition, on GSK-3β (AA 1-420), the Ki is < 100 nM. Also, the inhibition constant Ki at Aurora-2 is < 100 nM.

Compound `Cc1cc(Nc2nc(Nc3cccc(-c4ccccc4)c3)nc3ccccc23)n[nH]1` [IIc-63, [2-(Biphenyl-3-ylamino)-quinazolin-4-yl]-(5-methyl-2H-pyrazol-3-yl)-amine] registered a melting point of 206 to 207 °C. The same compound came in with a Ki at GSK-3β (AA 1-420) of 100 to 1000 nM. Moreover, the Ki at Aurora-2 was < 100 nM.

`COC(=O)Cc1ccc(Nc2nc(Nc3cc(C)[nH]n3)c3ccccc3n2)cc1C` [IIc-64, [2-(4-Methoxycarbonylmethyl-3-methylphenylamino)-quinazolin-4-yl]-(5-methyl-2H-pyrazol-3-yl)-amine] returned a melting point of 245 to 246 °C. At GSK-3β (AA 1-420), this compound gave a Ki of 100 to 1000 nM. Further, the Ki on Aurora-2 was < 100 nM.

`Cc1cc(Nc2nc(Nc3ccc(CC(=O)O)c(C)c3)nc3ccccc23)n[nH]1` [IIc-65, [2-(4-Carboxymethyl-3-methylphenylamino)-quinazolin-4-yl]-(5-methyl-2H-pyrazol-3-yl)-amine]: the melting point is 245 °C (dec.). The same compound returned a Ki on GSK-3β (AA 1-420) of 100 to 1000 nM. The Ki on Aurora-2 is < 100 nM.

As to `Cc1cc(Nc2nc(Nc3ccc(Br)cc3)nc3ccccc23)n[nH]1` [IIc-67, [2-(4-Bromophenylamino)-quinazolin-4-yl]-(5-methyl-2H-pyrazol-3-yl)-amine], the melting point is 290 to 293 °C. Further, the Ki at GSK-3β (AA 1-420) was < 100 nM. Moreover, the Ki on Aurora-2 is < 100 nM.

With `CCc1cc(Nc2nc(Nc3cc(CC)[nH]n3)c3ccccc3n2)n[nH]1` [IIc-69, (5-Ethyl-2H-pyrazol-3-yl)-[2-(5-ethyl-2H-pyrazol-3-ylamino)-quinazolin-4-yl]-amine], the melting point was 248 to 252 °C. In addition, the Ki at GSK-3β (AA 1-420) is 1000 to 7000 nM. For the same compound, at Aurora-2, the Ki was < 100 nM.

In the case of `c1ccc(Cc2nc(Nc3cc(C4CC4)[nH]n3)c3ccccc3n2)cc1` [IId-3, (2-Benzyl-quinazolin-4-yl)-(5-cyclopropyl-2H-pyrazol-3-yl)-amine], the melting point was 219 to 221 °C. On GSK-3β (AA 1-420), this compound displayed an inhibitory constant (Ki) of 1000 to 7000 nM. The Ki on Aurora-2 was < 100 nM.

The values above are taken from patent US6653300B2, “Pyrazole compounds useful as protein kinase inhibitors” (Vertex Pharmaceuticals Incorporated, priority 2000, dated 2003).
